Results taken from article PMC9060023 (Skin Health and Disease, 2021).

Assays:
[1] = Pharmacokinetic study, single oral dose in Ay/a mice; format: in vivo, mouse; conditions: for Cmax: Ay/a, mouse, po; for Cmax / Tmax / AUC(0-t): plasma; for AUC(0-t): read-out: AUC0–8 h
Tyr, Trp1 and Dct genes = assay: Expression of melanogenesis genes in pinnae of Ay/a mice (quantitative real-time PCR); format: in vivo, mouse
Method: (§1) Unless noted otherwise, 3‐week‐old male C57BL/6J‐A^y/+ mice (Ay/a mice) were purchased from Japan SLC, Inc. Mice were housed under specific pathogen‐free conditions, and all animal experiments were conducted according to the Guidelines for Animal Experimentation at our institute. On day 0, the coat of the lower back was shaved, and animals were allocated to experimental groups. […] Assessment of coat colour of the shaved area on day 6 was performed macroscopically in a blinded manner. The dorsal skins were dissected and fixed in a neutralised formalin then embedded in paraffin. Melanin production in the hair roots of the dorsal skin was histologically evaluated by Fontana‐Masson staining.
Total RNA was extracted using the Qiagen RNeasy Mini Kit (Qiagen), and quantitative real‐time PCR for Tyr, Trp1 and Dct was performed using the One Step SYBR PrimeScript PLUS RT‐PCR Kit (Takara Bio). Hypoxanthine phosphoribosyltransferase 1 (Hprt) was used as an endogenous control for normalisation. The ΔCT method was used to determine the relative expression levels. All PCR primers were purchased from Takara Bio with following product codes, MA153806 (Tyr), MA129755 (Trp1), MA118342 (Dct) and MA031262 (Hprt).

human MC2R (hMC2R) = target: T1, human MC2R (hMC2R) (Homo sapiens, UniProt Q01718); assay: Cyclic AMP assay in CHO-K1 cells expressing human MC2R and MRAP; format: cell-based; conditions: data not shown, read-out: EC50 agonistic activity (cAMP)
T1 construct: host or cells: CHO-K1
T1 sequence (Q01718 whole entry): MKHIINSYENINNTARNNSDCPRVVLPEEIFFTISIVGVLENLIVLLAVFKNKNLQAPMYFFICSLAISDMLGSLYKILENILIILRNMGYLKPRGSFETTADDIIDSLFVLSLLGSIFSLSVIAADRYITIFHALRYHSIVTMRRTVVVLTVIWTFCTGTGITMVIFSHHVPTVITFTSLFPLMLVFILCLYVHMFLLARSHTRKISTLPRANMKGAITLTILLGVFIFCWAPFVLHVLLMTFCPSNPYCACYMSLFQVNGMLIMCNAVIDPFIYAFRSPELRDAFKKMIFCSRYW
T1 sequence (Q8TCY5 whole entry partner): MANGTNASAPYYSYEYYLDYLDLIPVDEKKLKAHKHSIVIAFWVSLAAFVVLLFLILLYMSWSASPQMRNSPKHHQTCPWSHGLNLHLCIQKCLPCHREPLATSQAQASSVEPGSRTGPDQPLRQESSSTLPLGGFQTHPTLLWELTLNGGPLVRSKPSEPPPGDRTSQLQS

[2] = test system: cynomolgus monkeys (Macaca fascicularis); assay: Pigmentation on the facial skin of cynomolgus monkeys (colorimeter, ΔL*); format: in vivo, cynomolgus monkey
Method: This study was conducted in compliance with the ‘Act on Welfare and Management of Animals’ in Japan and the ‘Guidance for Animal Care and Use’ and in accordance with the protocol reviewed by the Institutional Animal Care and Use Committee of the test facility, which is fully accredited by AAALAC International. […] The measurement site (cheek) was the same site on the face for all animals. […] The ΔL* represents the differences of individual L* values between each time point and pre‐test.

[3] = Pharmacokinetic study, 4 weeks repeated oral dosing in cynomolgus monkeys; format: in vivo, cynomolgus monkey; conditions: for Cmax / Tmax / AUC(0-t): female, cynomolgus monkey, plasma; for AUC(0-t): read-out: AUC0–24 h
[4] = test system: B16F1 mouse melanoma cell line; assay: Melanin production in B16F1 cell line; format: cell-based; conditions: B16-F1, 72 h, read-out: EC50 of melanin production (95% confidence interval)
Method: Dulbecco's modified Eagle medium without phenol red (Life Technologies), containing 10% foetal bovine serum (Gibco) and 100 U/ml of penicillin‐streptomycin (Gibco), was used as the assay medium. Cells (1.5 × 10^4) were seeded into a 96‐well culture plate. Serially diluted test substances were added to the plate and incubated at 37°C in a humidified 5% CO2 incubator for 3 days.

[5] = Tissue distribution study in rats; format: in vivo, rat; conditions: data not shown
[6] = target: T2, cynomolgus monkey MC1R (cmMC1R) (Macaca fascicularis, UniProt A3KF53); assay: Cyclic AMP assay in HEK293 cells stably expressing cmMC1R; format: cell-based; conditions: cmMC1R on HEK293; geometric mean of three experiments; read-out: EC50 agonistic activity (cAMP)
T2 sequence (A3KF53 1-317): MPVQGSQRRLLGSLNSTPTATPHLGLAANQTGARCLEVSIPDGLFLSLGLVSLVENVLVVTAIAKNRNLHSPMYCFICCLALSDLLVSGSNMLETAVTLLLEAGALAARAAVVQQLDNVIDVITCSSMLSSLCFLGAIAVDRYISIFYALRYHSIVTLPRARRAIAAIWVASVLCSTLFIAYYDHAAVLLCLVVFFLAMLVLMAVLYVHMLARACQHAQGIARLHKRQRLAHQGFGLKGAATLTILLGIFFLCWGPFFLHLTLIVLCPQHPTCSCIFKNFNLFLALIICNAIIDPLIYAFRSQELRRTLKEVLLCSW
Method: (§2) The site‐specific integration of each MCR gene was carried out in accordance with the Jump‐In^TM TI^TM Gateway® Targeted Integration System user guide (www.lifetechnologies.com) except replacement of tetracycline‐induced CMV promoter into SV40 promoter in MCR expression vector as previously described.[15] This technology enables stable single copy integration at the same location in the genome, equalising expression levels. CHO‐K1 cells expressing human MC2R and accessory protein MRAP were prepared by EuroscreenFast (Gosselies, Belgium).
(§3) Hanks' balanced salt solution containing 1% bovine serum albumin and 10 mmol/l HEPES was prepared and used as an assay buffer. Cells were suspended in the assay buffer containing 0.5 mmol/l 3‐isobutyl‐1‐methylxanthine (Calbiochem) and plated into a microplate. Serially diluted test substances were then added and incubated for 30 min at 37°C. Concentrations of cAMP in the cells were quantified using the cAMP dynamic 2 kit (Cisbio Bioassays) by measuring fluorescence.

rat MC1R = target: T3, rat MC1R (Rattus norvegicus, UniProt B6ZGR5); assay: Cyclic AMP assay in HEK293 cells stably expressing rat MC1R; format: cell-based; conditions: data not shown, read-out: EC50 agonistic activity (cAMP)
T3 construct: expressed in transfected cells; host or cells: HEK293 (Jump-In TI Gateway targeted integration, SV40 promoter)
T3 sequence (B6ZGR5 1-317): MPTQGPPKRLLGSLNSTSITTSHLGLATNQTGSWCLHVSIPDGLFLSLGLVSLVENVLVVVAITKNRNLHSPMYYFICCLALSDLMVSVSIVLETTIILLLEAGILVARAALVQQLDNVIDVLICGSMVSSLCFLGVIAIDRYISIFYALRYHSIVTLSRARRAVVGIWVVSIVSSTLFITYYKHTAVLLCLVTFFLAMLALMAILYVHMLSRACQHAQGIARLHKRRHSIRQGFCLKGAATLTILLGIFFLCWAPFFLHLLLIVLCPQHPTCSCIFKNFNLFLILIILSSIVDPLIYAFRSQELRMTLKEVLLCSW

human MC1R (hMC1R) = assay: Cyclic AMP assay in HEK293 cells stably expressing hMC1R; format: cell-based; conditions: wild type and variants
Method: as §2, §3

[7] = test system: C57BL/6J-Ay/+ mice (Ay/a mice); assay: Coat colour darkening in Ay/a mice; format: in vivo, mouse; conditions: for Coat colour of all mice: 6 consecutive days
Method: as §1

melanocytes in face = assay: Chronic toxicity study, histopathology of melanocytes in face; format: in vivo; conditions: chronic toxicity study in non-rodent species; data not shown
[8] = Ay/a mouse, male, 0.03 mg/kg oral, day 1
[9] = Ay/a mouse, male, 0.3 mg/kg oral, day 1

COC[C@H]1CN(C(=O)[C@]2(F)CN(C3CCCC3)C[C@H]2c2ccc(OC)cc2)C[C@@H]1c1ccc(C(F)(F)F)cc1N1CCC(C(=O)O)CC1 [MT‐7117, dersimelagon]
C max ([1]; Ay/a mouse, male, 0.3 mg/kg oral, day 1, 0.3 mg/kg): 5.62 ng/mL | Cmax ([1]; male, 0.03 mg/kg, Ay/a mouse, male, 0.03 mg/kg oral, day 1, read-out: C max): 0.668 ng/mL | Cmax ([1]; male, 0.3 mg/kg, Ay/a mouse, male, 0.3 mg/kg oral, day 1, read-out: C max): 5.6 ng/mL | Cmax ([1]; male, 0.3 mg/kg, mice, single oral dose 0.3 mg/kg, read-out: Cmax in molar units): 8.3 nM | Increase of plasma levels with dose ([1]; mice, 0.03 and 0.3 mg/kg): dose‐proportional manner | Tmax [1, 8]: 0.5 h | AUC(0-t) [1, 8]: 2.62 ng·h/mL | Tmax [1, 9]: 2 h | AUC(0-t) [1, 9]: 31.8 ng·h/mL | Expression of Tyr, Trp1 and Dct genes in pinnae (Tyr, Trp1 and Dct genes; 0.3 mg/kg single oral dose, 24 h): tendency towards gene upregulation | Expression of Tyr, Trp1 and Dct genes in pinnae (Tyr, Trp1 and Dct genes; 3 mg/kg single oral dose, 24, 48 and 72 h, relative to Hprt): significantly upregulated | EC50 (human MC2R (hMC2R)): > 10000 nM | Time of dosing after which ΔL* decrease was statistically significant versus vehicle ([2]; 10 mg/kg/day oral): 3 weeks | Time after cessation of treatment at which pigmentation diminished ([2]; 30 mg/kg group): 16 weeks | Time of dosing after which ΔL* decrease was statistically significant versus vehicle ([2]; 30 mg/kg/day oral): 1 week | Time after cessation of treatment at which pigmentation diminished ([2]; 1, 3 and 10 mg/kg groups): 4 weeks | Time of dosing after which ΔL* decrease was statistically significant versus vehicle ([2]; 1 and 3 mg/kg/day oral): 4 weeks | Minimum effective dose for skin pigmentation of monkeys ([2]; oral, once daily): 1 mg/kg | Dose that induced significant skin pigmentation in monkeys ([2]; p.o.): ≥ 1 mg/kg/day | Cmax ([3]; monkeys, repeated oral dosing 1 mg/kg, read-out: Cmax in molar units): 78 nM | Increase of plasma levels with dose ([3]; monkeys, 1, 3 and 10 mg/kg): greater than a dose‐proportional increase | Tmax ([3]; 1 mg/kg oral, day 28): 2.6 h | AUC(0-t) ([3]; 1 mg/kg oral, day 28): 428 ng·h/mL | Cmax ([3]; 1 mg/kg oral, day 28, read-out: C max): 53 ng/mL | Tmax ([3]; 3 mg/kg oral, day 28): 1 h | AUC(0-t) ([3]; 3 mg/kg oral, day 28): 2510 ng·h/mL | Cmax ([3]; 3 mg/kg oral, day 28, read-out: C max): 401 ng/mL | Tmax ([3]; 10 mg/kg oral, day 28): 1.8 h | AUC(0-t) ([3]; 10 mg/kg oral, day 28): 14100 ng·h/mL | Cmax ([3]; 10 mg/kg oral, day 28, read-out: C max): 1510 ng/mL | EC50 [4]: 0.013 nM | Distribution into the brain [5]: less likely to be distributed into the brain | EC50 [6]: 3.91 nM | EC50 (rat MC1R): 0.251 nM | Emax of cAMP production compared with αMSH (human MC1R (hMC1R)): same level as that of the endogenous agonist αMSH | Coat colour of all mice ([7]; 0.3 mg/kg orally): black | Coat colour of all mice ([7]; 3 mg/kg orally): black | Pigment in the hair root (Fontana-Masson staining of dorsal skin) ([7]; 3 mg/kg, day 6): black | Minimum effective dose for darkening of coat colour of mice ([7]; oral, Ay/a mice): 0.3 mg/kg | Dose that significantly induced coat colour darkening in mice ([7]; p.o.): ≥ 0.3 mg/kg/day | Histopathological change for melanocytes in face (melanocytes in face): no histopathological change
